Data reported in patent US10633419B2, “Immunomodulators” (BRISTOL-MYERS SQUIBB COMPANY, priority 2014, dated 2020).
Like-named read-outs stand apart in the source and are kept apart here. Starred links: 1 amine or outer side, 2 acyl side, 3 side chain; linkers in the order of their positions; H or OH if unused. Positions of bridges follow the written chain, without caps; N, C: chain ends. Non-standard residues stand in square brackets, D forms with d. Residues, ends and D or L forms follow the SMILES beside them. Groups on a side chain read outwards from the residue. *: point of attachment. X22 = CCCCCCCCCCCCCC(=O)N[C@H](CCC(=O)NCCCC[C@H](NC(=O)CCC(=O)NCCCOCCOCCOCCCN*)C(N)=O)C(=O)O; X6 = O=C(O)CCCCCCCCCCCCCCCCC(=O)N[C@@H](CCC(=O)NCCCOCCOCCOCCCN*)C(=O)O; Trp(1-CH2COOH) = N[C@@H](Cc1cn(CC(=O)O)c2ccccc12)C(=O)O; X26 = O=C(O)Cn1cc(CC(N[*:1])C(=O)[*:2])c2ccccc21; C18 diacid = O=C(O)CCCCCCCCCCCCCCCCC(=O)*; NH(CH2)16COOH = O=C(O)CCCCCCCCCCCCCCCCN*; Phe(4-F) = N[C@@H](Cc1ccc(F)cc1)C(=O)O; γGlu = O=C(O)[C@H](CCC(=O)[*:2])N[*:1]; d(cisHyp) = O=C(O)[C@H]1C[C@@H](O)CN1; Hyp = O=C(O)[CH]1C[CH](O)CN1; NMeNle = CCCC[CH](NC)C(=O)O; Pip = O=C(O)[C@@H]1CCCCN1; NMeA = CN[CH](C)C(=O)O; Dab = NCC[CH](N)C(=O)O; Dap = NC[CH](N)C(=O)O

Molecular target: T1, PD-L1 (Homo sapiens, UniProt Q9NZQ7)
T1 construct: hPDL1(19-239)-TVMV-His; made in house; host or cells: HEK293T
Assay: PD-1/PD-L1 Homogenous Time-Resolved Fluorescence (HTRF) binding assay (PD-1-Ig/PD-L1-His)
Settings: inhibition of PD-1-Ig binding to PD-L1-TVMV-His, read-out: HTRF IC50
Outline: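 HTRF competition in dPBS with 0.1% BSA and 0.05% Tween-20: 20 nM PD-1-Ig added after 15 min compound pre-incubation with 10 nM PD-L1-His, then another 15 min. Signal (665/620 nm) after 30 min with APC anti-His (20 nM) and Eu anti-Ig (1 nM).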

T1 sequence (Q9NZQ7 with tags, fused parts or gaps): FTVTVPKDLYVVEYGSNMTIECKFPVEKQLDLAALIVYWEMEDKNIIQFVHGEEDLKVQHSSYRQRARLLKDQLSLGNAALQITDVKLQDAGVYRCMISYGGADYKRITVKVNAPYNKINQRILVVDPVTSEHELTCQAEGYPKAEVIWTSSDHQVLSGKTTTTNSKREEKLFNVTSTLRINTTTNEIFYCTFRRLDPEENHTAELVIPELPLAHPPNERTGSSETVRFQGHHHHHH

Row | SMILES | IC50 (value given as range class) [µM] | IC50 (value given as number) [µM]
1 | CCCCCCCCCCCCCC(=O)N[C@H](CCC(=O)NCCCC[C@H](NC(=O)CCC(=O)NCCCOCCOCCOCCCNC(=O)CNC(=O)[C@@H]1CSCC(=O)N[C@@H](Cc2ccc(O)cc2)C(=O)N(C)[C@@H](C)C(=O)N[C@@H](CC(=O)O)C(=O)N2CCC[C@H]2C(=O)N[C@@H](Cc2cnc[nH]2)C(=O)N[C@@H](CC(C)C)C(=O)N2C[C@H](O)C[C@H]2C(=O)N[C@@H](Cc2c[nH]c3ccccc23)C(=O)N[C@@H](CO)C(=O)N[C@@H](Cc2c[nH]c3ccccc23)C(=O)N(C)[C@@H](CCCC)C(=O)N(C)[C@@H](CCCC)C(=O)N[C@@H](CCCNC(=N)N)C(=O)N1)C(N)=O)C(=O)O [Example 11125] ({CH2CO}-Y[NMeA]DPHL[Hyp]WSW[NMeNle][NMeNle]RCG-X22; thioether N-14) | 0.01 to 0.099 | –
2 | CCCC[C@H]1C(=O)N(C)[C@@H](CCCC)C(=O)N[C@@H](CC(C)C)C(=O)N[C@H](C(=O)NCC(=O)N[C@@H](CCC(=O)NCCCOCCOCCOCCCNC(=O)CC[C@H](NC(=O)CCCCCCCCCCCCCCCCC(=O)O)C(=O)O)C(=O)O)CSCC(=O)N[C@@H](Cc2ccc(O)cc2)C(=O)N(C)[C@@H](C)C(=O)N[C@@H](CC(N)=O)C(=O)N2CCC[C@H]2C(=O)N[C@@H](CN)C(=O)N[C@@H](CC(C)C)C(=O)N2C[C@H](O)C[C@@H]2C(=O)N[C@@H](Cc2c[nH]c3ccccc23)C(=O)N[C@@H](CCN)C(=O)N[C@@H](Cc2cn(CC(=O)O)c3ccccc23)C(=O)N1C [Example 11163] ({CH2CO}-Y[NMeA]NP[Dap]L[d(cisHyp)]W[Dab][Trp(1-CH2COOH)][NMeNle][NMeNle]LCGE(X6)-OH; thioether N-14) | 0.0003 to 0.0099 | –
3 | CCCC[C@H]1C(=O)N(C)[C@@H](CCCC)C(=O)N[C@@H](CC(C)C)C(=O)N[C@H](C(=O)NCC(=O)N[C@@H](CC(=O)NCCCOCCOCCOCCCNC(=O)CC[C@H](NC(=O)CCCCCCCCCCCCCCCCC(=O)O)C(=O)O)C(=O)O)CSCC(=O)N[C@@H](Cc2ccc(O)cc2)C(=O)N(C)[C@@H](C)C(=O)N[C@@H](CC(=O)O)C(=O)N2CCC[C@H]2C(=O)N[C@@H](CN)C(=O)N[C@@H](CCC(=O)O)C(=O)N2C[C@H](O)C[C@H]2C(=O)N[C@@H](Cc2c[nH]c3ccccc23)C(=O)N[C@@H](CCN)C(=O)N[C@@H](Cc2cn(CC(=O)O)c3ccccc23)C(=O)N1C [Example 11178] ({CH2CO}-Y[NMeA]DP[Dap]E[Hyp]W[Dab][Trp(1-CH2COOH)][NMeNle][NMeNle]LCGD(X6)-OH; thioether N-14) | 0.0003 to 0.0099 | –
4 | CCCC[C@H]1C(=O)N(C)[C@@H](CCCC)C(=O)N[C@@H](CC(C)C)C(=O)N[C@H](C(=O)NCC(=O)N[C@@H](CCNC(=O)CC[C@H](NC(=O)CCCCCCCCCCCCCCCCC(=O)O)C(=O)O)C(=O)O)CSCC(=O)N[C@@H](Cc2ccc(F)cc2)C(=O)N2CCCC[C@H]2C(=O)N[C@@H](CC(=O)O)C(=O)N2CCC[C@H]2C(=O)N[C@@H](CN)C(=O)N[C@@H](CC(C)C)C(=O)N2C[C@H](O)C[C@H]2C(=O)N[C@@H](Cc2c[nH]c3ccccc23)C(=O)N[C@@H](CCN)C(=O)N[C@@H](Cc2cn(CC(=O)O)c3ccccc23)C(=O)N1C [Example 13150] ({CH2CO}-[Phe(4-F)][Pip]DP[Dap]L[Hyp]W[Dab][Trp(1-CH2COOH)][NMeNle][NMeNle]LCG[Dab]([γGlu-C18 diacid])-OH; thioether N-14) | – | 0.0209
5 | CCCCC1C(=O)N(C)C(CCCC)C(=O)NC(CC(C)C)C(=O)NC(C(=O)NCC(=O)NCCCCCCCCCCCCCCCCC(=O)O)CSCC(=O)NC(Cc2ccc(O)cc2)C(=O)N(C)C(C)C(=O)NC(CC(N)=O)C(=O)N2CCCC2C(=O)NC(CN)C(=O)NC(CC(C)C)C(=O)N2CC(O)CC2C(=O)NC(Cc2c[nH]c3ccccc23)C(=O)NC(CCN)C(=O)NC(Cc2cn(CC(=O)O)c3ccccc23)C(=O)N1C (centres unmarked) [Example 11188] ({CH2CO}-Y[NMeA]NP[Dap]L[Hyp]W[Dab][X26][NMeNle][NMeNle]LCG-{NH(CH2)16COOH}; thioether N-14; configuration not given here) | – | 0.28
